In one assay the target is GST-Bcl-2 (Homo sapiens, UniProt P10415). In words: TR-FRET binding assay, GST-Bcl-2 with F-Bak peptide probe. The following applies: TR-FRET Binding Affinity, GST-Bcl-2, F-Bak peptide probe. The essentials: (§1)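 Competitive TR-FRET: GST-fusion protein, fluorescent Bak peptide probe and Tb-labelled anti-GST antibody incubated with compound dilution series (starting 50 μM as 2× stock, 10% DMSO) for 3 h at RT. Excitation 340/35 nm; Ki derived via Wang's exact competitive-binding equation.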
GST-Bcl-2, sequence (P10415 whole entry, the tested form may be a part): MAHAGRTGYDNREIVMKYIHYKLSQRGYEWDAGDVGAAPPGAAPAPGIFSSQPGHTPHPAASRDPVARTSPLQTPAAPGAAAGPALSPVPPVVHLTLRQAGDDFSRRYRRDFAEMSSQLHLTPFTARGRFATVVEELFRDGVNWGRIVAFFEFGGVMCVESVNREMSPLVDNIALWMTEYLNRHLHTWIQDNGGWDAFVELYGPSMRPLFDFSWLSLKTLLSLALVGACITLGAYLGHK

The next assay deals with GST-Bcl-XL (Homo sapiens, UniProt Q07817). Put plainly: TR-FRET binding assay, GST-Bcl-XL with F-Bak peptide probe. The settings on record: TR-FRET Binding Affinity, GST-Bcl-XL, F-Bak peptide probe. Summed up:
as §1
Background: In TR-FRET formats the signal depends on donor and acceptor labels being close together.

A further assay has as its system FL5.12/Bcl-2 cells. In words: FL5.12/Bcl-2 cell viability assay under IL-3 withdrawal (CellTitre Glo). In kind it is cell-based, murine. The following applies: Mus musculus, IL-3 withdrawn 48 hrs, then 24 hrs with compound. Summed up: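 Bcl-2-overexpressing murine FL5.12 transfectants underwent IL-3 removal for 48 hrs before a 24 hr compound treatment. Cell viability was quantified with CellTitre Glo.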

The Ki is a measure of affinity in units of concentration, obtained from inhibition or displacement. Lower therefore signals higher affinity. As usually defined, the EC50 is the midpoint of the concentration-response curve.

GST-Bcl-XL, sequence (Q07817 whole entry): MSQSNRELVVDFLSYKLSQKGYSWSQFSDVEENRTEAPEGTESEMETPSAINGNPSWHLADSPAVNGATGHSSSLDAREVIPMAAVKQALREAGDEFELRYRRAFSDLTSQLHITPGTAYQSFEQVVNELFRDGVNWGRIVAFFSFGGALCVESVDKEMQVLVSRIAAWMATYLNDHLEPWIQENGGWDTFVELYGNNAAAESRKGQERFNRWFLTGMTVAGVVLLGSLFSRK

Consider `CCN(CC)C1CCC(Nc2ccc(S(=O)(=O)NC(=O)c3ccc(N4CCN(CC5=C(c6ccc(Cl)cc6)CC(C)(C)CC5)CC4)cc3Oc3cccc4[nH]ccc34)cc2[N+](=O)[O-])CC1` (stereo not drawn) [Example 203, 4-(4-{[2-(4-chlorophenyl)-4,4-dimethylcyclohex-1-en-1-yl]methyl}piperazin-1-yl)-N-[(4-{[4-(diethylamino)cyclohexyl]amino}-3-nitrophenyl)sulfonyl]-2-(1H-indol-4-yloxy)benzamide], for which the Ki was 0.031 nM on GST-Bcl-2 and 4.3 nM at GST-Bcl-XL. Also, the EC50 with FL5.12/Bcl-2 cells turned out to be 22.3 nM.

With `CC1(C)CCC(CN2CCN(c3ccc(C(=O)NS(=O)(=O)c4ccc(N[C@H]5CC[C@H](N6CCOCC6)CC5)c([N+](=O)[O-])c4)c(Oc4cccc5[nH]ccc45)c3)CC2)=C(c2ccc(Cl)cc2)C1` [Example 204, Trans-4-(4-{[2-(4-chlorophenyl)-4,4-dimethylcyclohex-1-en-1-yl]methyl}piperazin-1-yl)-2-(1H-indol-4-yloxy)-N-({4-[(4-morpholin-4-ylcyclohexyl)amino]-3-nitrophenyl}sulfonyl)benzamide], the Ki at GST-Bcl-2 is 0.145 nM; at GST-Bcl-XL, 42.3 nM. Moreover, the EC50 in the assay on FL5.12/Bcl-2 cells was 27.4 nM.

Turning to `CN(C)CCOc1cccc(-c2ccc(Cl)cc2)c1CN1CCN(c2ccc(C(=O)NS(=O)(=O)c3ccc(NC4CCN(C)CC4)c([N+](=O)[O-])c3)c(Oc3cccc4[nH]ccc34)c2)CC1` [Example 205, 4-[4-({4′-chloro-3-[2-(dimethylamino)ethoxy]-1,1′-biphenyl-2-yl}methyl)piperazin-1-yl]-2-(1H-indol-4-yloxy)-N-({4-[(1-methylpiperidin-4-yl)amino]-3-nitrophenyl}sulfonyl)benzamide], the Ki on GST-Bcl-2 was found to be 0.005 nM; at GST-Bcl-XL, 3.57 nM. The EC50 in the assay with FL5.12/Bcl-2 cells stood at 37.5 nM.

In the case of `CC(c1ccccc1-c1ccc(Cl)cc1)N1CCN(c2ccc(C(=O)NS(=O)(=O)c3ccc(NC4CCN(C)CC4)c([N+](=O)[O-])c3)c(Oc3cccc4[nH]ccc34)c2)CC1` (stereo not drawn) [Example 206, 4-{4-[1-(4′-chloro-1,1′-biphenyl-2-yl)ethyl]piperazin-1-yl}-2-(1H-indol-4-yloxy)-N-({4-[(1-methylpiperidin-4-yl)amino]-3-nitrophenyl}sulfonyl)benzamide], the results for the Ki on GST-Bcl-2 and at GST-Bcl-XL were 0.083 nM and above 660 nM, respectively. Also, the EC50 in the assay with FL5.12/Bcl-2 cells is 5.01 nM.

Consider `CN(C)C1(CNc2ccc(S(=O)(=O)NC(=O)c3ccc(N4CCN(CC5=C(c6ccc(Cl)cc6)CC(C)(C)CC5)CC4)cc3Oc3ccc4[nH]ccc4c3)cc2[N+](=O)[O-])CCOCC1` [Example 207, 4-(4-{[2-(4-chlorophenyl)-4,4-dimethylcyclohex-1-en-1-yl]methyl}piperazin-1-yl)-N-{[4-({[4-(dimethylamino)tetrahydro-2H-pyran-4-yl]methyl}amino)-3-nitrophenyl]sulfonyl}-2-(1H-indol-5-yloxy)benzamide], for which the Ki on GST-Bcl-2 was 0.218 nM; on GST-Bcl-XL, above 660 nM. In the assay with FL5.12/Bcl-2 cells, the EC50 is 120 nM.

Regarding `CC1(C)CCC(CN2CCN(c3ccc(C(=O)NS(=O)(=O)c4ccc(NC5CCCCC5N)c([N+](=O)[O-])c4)c(Oc4ccc5[nH]ccc5c4)c3)CC2)=C(c2ccc(Cl)cc2)C1` (stereo not drawn) [Example 208, N-({4-[(2-aminocyclohexyl)amino]-3-nitrophenyl}sulfonyl)-4-(4-{[2-(4-chlorophenyl)-4,4-dimethylcyclohex-1-en-1-yl]methyl}piperazin-1-yl)-2-(1H-indol-5-yloxy)benzamide], the Ki at GST-Bcl-2 is 0.589 nM; at GST-Bcl-XL it was above 660 nM. The EC50 in the assay with FL5.12/Bcl-2 cells is 264 nM.

Take `CN(C)CC#Cc1ccc(-c2ccc(Cl)cc2)c(CN2CCN(c3ccc(C(=O)NS(=O)(=O)c4ccc(NCC5CCOCC5)c([N+](=O)[O-])c4)c(Oc4cccc5[nH]ccc45)c3)CC2)c1` [Example 209, 4-[4-({4′-chloro-4-[3-(dimethylamino)prop-1-ynyl]-1,1′-biphenyl-2-yl}methyl)piperazin-1-yl]-2-(1H-indol-4-yloxy)-N-({3-nitro-4-[(tetrahydro-2H-pyran-4-ylmethyl)amino]phenyl}sulfonyl)benzamide]: the figures for the Ki on GST-Bcl-2 and at GST-Bcl-XL were 0.267 nM and above 660 nM, respectively. In addition, in the assay with FL5.12/Bcl-2 cells, the EC50 was found to be 139 nM.

Regarding `CC1(C)CCC(CN2CCN(c3ccc(C(=O)NS(=O)(=O)c4ccc(NC5CCN(CCCC(F)(F)F)CC5)c([N+](=O)[O-])c4)c(Oc4cccc5[nH]ccc45)c3)CC2)=C(c2ccc(Cl)cc2)C1` [Example 210, 4-(4-{[2-(4-chlorophenyl)-4,4-dimethylcyclohex-1-en-1-yl]methyl}piperazin-1-yl)-2-(1H-indol-4-yloxy)-N-[(3-nitro-4-{[1-(4,4,4-trifluorobutyl)piperidin-4-yl]amino}phenyl)sulfonyl]benzamide], the Ki was 0.624 nM on GST-Bcl-2 and above 660 nM on GST-Bcl-XL. Moreover, the EC50 in the assay with FL5.12/Bcl-2 cells was determined as 257 nM.

`CN1CCC(O)(CCNc2ccc(S(=O)(=O)NC(=O)c3ccc(N4CCN(CC5=C(c6ccc(Cl)cc6)CC(C)(C)CC5)CC4)cc3Oc3ccc4[nH]ccc4c3)cc2[N+](=O)[O-])CC1` [Example 211, 4-(4-{[2-(4-chlorophenyl)-4,4-dimethylcyclohex-1-en-1-yl]methyl}piperazin-1-yl)-N-[(4-{[2-(4-hydroxy-1-methylpiperidin-4-yl)ethyl]amino}-3-nitrophenyl)sulfonyl]-2-(1H-indol-5-yloxy)benzamide]: the Ki was 0.009 nM at GST-Bcl-2 and 5.61 nM at GST-Bcl-XL. For the same compound, the EC50 in the assay on FL5.12/Bcl-2 cells is 17.1 nM.

With `CC1(C)CCC(CN2CCN(c3ccc(C(=O)NS(=O)(=O)c4ccc(NC5CCN(c6nccs6)CC5)c([N+](=O)[O-])c4)c(Oc4ccc5[nH]ccc5c4)c3)CC2)=C(c2ccc(Cl)cc2)C1` [Example 212, 4-(4-{[2-(4-chlorophenyl)-4,4-dimethylcyclohex-1-en-1-yl]methyl}piperazin-1-yl)-2-(1H-indol-5-yloxy)-N-[(3-nitro-4-{[1-(1,3-thiazol-2-yl)piperidin-4-yl]amino}phenyl)sulfonyl]benzamide], the Ki is 0.737 nM on GST-Bcl-2 and above 660 nM at GST-Bcl-XL. For the same compound, the EC50 in the assay with FL5.12/Bcl-2 cells was above 500 nM.

With `O=C(NS(=O)(=O)c1ccc(NCC2CCOCC2)c([N+](=O)[O-])c1)c1ccc(N2CCN(Cc3cc(OCCO)ccc3-c3ccc(Cl)cc3)CC2)cc1Oc1cccc2[nH]ccc12` [Example 213, 4-(4-{[4′-chloro-4-(2-hydroxyethoxy)-1,1′-biphenyl-2-yl]methyl}piperazin-1-yl)-2-(1H-indol-4-yloxy)-N-({3-nitro-4-[(tetrahydro-2H-pyran-4-ylmethyl)amino]phenyl}sulfonyl)benzamide], the Ki at GST-Bcl-2 was below 0.01 nM; on GST-Bcl-XL it was above 660 nM. Moreover, in the assay on FL5.12/Bcl-2 cells, the EC50 amounted to 432 nM.

Turning to `CC1(C)CCC(CN2CCN(c3ccc(C(=O)NS(=O)(=O)c4ccc(NC5CCN(CC6CC6)CC5)c([N+](=O)[O-])c4)c(Oc4ccc5[nH]ccc5c4)c3)CC2)=C(c2ccc(Cl)cc2)C1` [Example 214, 4-(4-{[2-(4-chlorophenyl)-4,4-dimethylcyclohex-1-en-1-yl]methyl}piperazin-1-yl)-N-[(4-{[1-(cyclopropylmethyl)piperidin-4-yl]amino}-3-nitrophenyl)sulfonyl]-2-(1H-indol-5-yloxy)benzamide], the results for the Ki at GST-Bcl-2 and at GST-Bcl-XL were 0.082 nM and 64 nM, respectively. Besides, the EC50 with FL5.12/Bcl-2 cells was determined as 15.7 nM.
